Test results from US20190233884A1 (University of Southern California, priority 2016, published 2019).

Test system: patients with refractory metastatic colorectal cancer (mCRC)
Test: PFS, OS and disease control in the training (evaluation) cohort of refractory mCRC patients receiving TAS-102 (n=52, Japan), by baseline characteristics, SNP genotype and toxicity
Format: in vivo, human
Procedure: All patients underwent the treatment in salvage-line setting. […]
(§1) Genomic DNA was extracted from peripheral whole blood in patients of all cohorts using the QIAmp Kit (Qiagen, Valencia, Calif., USA) according to the manufacturer's protocol (www.qiagen.com). The candidate SNPs were genotyped using PCR-based direct DNA sequence analysis by ABI 3100A Capillary Genetic Analyzer and Sequencing Scanner v1.0 (Applied Biosystems). Amplification of extracted DNA was carried out using both forward and reverse primers for each gene polymorphism as shown in Table 1. […] The investigators analyzing SNPs were blinded to the clinical data of the study patients.
The primary endpoint in this study was progression-free survival (PFS), and the secondary endpoints were overall survival (OS) and disease control rate (DCR). PFS was calculated from the date of starting treatment to the first observation of disease progression or death from any cause. If a patient had no disease progression or death, PFS was censored at the date of last follow up. OS was calculated from the date of starting treatment until the date of death from any cause or the date of the last follow-up, at which point OS was censored. The disease control rate (DCR) was defined as the proportion of patients who achieved a stable disease (SD) or […] according to RECISTv1.1. Chi-square test was used to examine the difference in baseline patient characteristics among the three cohorts. Allelic distribution of all SNPs by ethnicity for deviation from Hardy-Weinberg equilibrium and the allelic frequencies of SNPs were tested using the Chi-square tests with one degree of freedom. The associations between candidate SNPs and disease control, and toxicities were examined using contingency tables and Fisher's exact test. The associations of SNPs with PFS and OS were analysed using Kaplan-Meier curves and the log-rank test. Because the true mode of inheritance of candidate SNPs was not established yet, a codominant or dominant genetic model if appropriate was considered.
All patients underwent the treatment in salvage-line setting. […] In all patients, adverse events were graded according to the Common Terminology Criteria for Adverse Events, version 4.0. […]
as §1, with “tested” for “genotyped”, “Biosystems).” for “Biosystems). Amplification of extracted DNA was carried out using both forward and reverse primers for each gene polymorphism as shown in Table 1.”, “data.” for “data of the study patients.”
The primary endpoint in this study was progression-free survival (PFS), and the secondary endpoints were overall survival (OS) and disease control rate (DCR).

[1] = training cohort, OCT2 rs316019 C/C
[2] = training cohort, hENT1 + OCT2/MATE1 classification: Fair
[3] = training cohort, hENT1rs750370_19 Excellent
[4] = training cohort, hENT1rs750370_19 Faire
[5] = training cohort, hENT1rs750370_19 Faire vs Poor
[6] = training cohort, hENT1rs750370_19 Good
[7] = training cohort, hENT1rs750370_19 Good and Excellent combined
[8] = training cohort, hENT1rs750370_19 Good and Excellent combined vs Poor
[9] = training cohort, hENT1rs750370_19 Poor
[10] = training cohort, hENT1 rs760370, multivariate adjusted for liver metastases and adjuvant history
[11] = training cohort, hENT1 rs760370 A/A
[12] = training cohort, hENT1 rs760370 A/G
[13] = training cohort, hENT1 rs760370 A/G and G/G combined
[14] = training cohort, hENT1 rs760370 A/G and G/G combined vs A/A
[15] = training cohort, hENT1 rs760370 G/G
[16] = training cohort, hENT1 rs760370 any G allele
[17] = training cohort, hENT1 rs760370 any G vs A/A, univariate
[18] = training cohort, hENT1 rs9394992 C/C
[19] = training cohort, hENT1 rs9394992 C/T
[20] = training cohort, hENT1 rs9394992 C/T and T/T combined
[21] = training cohort, hENT1 rs9394992 C/T and T/T combined vs C/C
[22] = training cohort, hENT1 rs9394992 T/T
[23] = training cohort, hENT1 rs9394992 any T allele
[24] = training cohort, hENT1 rs9394992 any T vs C/C, univariate
[25] = training/evaluation cohort, grade 3≤ neutropenia vs less than grade 3, univariate
[26] = training/evaluation cohort, neutropenia less than grade 3 (n=32)
[27] = training/evaluation cohort, patients with grade 3≤ neutropenia (n=20)
[28] = whole training (evaluation) cohort

Trifluridine/tipiracil [TAS-102]
Progression-free Survival HR (95% CI) univariate (training cohort, OCT2 rs316019 C/A and A/A combined vs C/C): 0.74 (0.35, 1.52)
Disease Control Rate PD [1]: 24 (73%)
Disease Control Rate SD [1]: 9 (27%)
Overall Survival Median, months (95% CI) [1]: 8.1 (5.7, 12.4) months
Progression-free Survival Median, months (95% CI) [1]: 2.5 (2.1, 3.4) months
Progression-free Survival HR (95% CI) multivariate (training cohort, adjusted for liver metastasis and adjuvant history, CNT1 rs2290272 A/A genotype): 1.01 (0.38, 2.68)
Progression-free Survival HR (95% CI) multivariate (training cohort, adjusted for liver metastasis and adjuvant history, CNT1 rs2290272 G/A genotype): 0.64 (0.29, 1.39)
Progression-free Survival HR (95% CI) multivariate (training cohort, adjusted for liver metastasis and adjuvant history, CNT1 rs2290272 any A allele): 0.71 (0.33, 1.50)
Progression-free Survival HR (95% CI) multivariate (training cohort, adjusted for liver metastasis and adjuvant history, MATE2 rs16960360 A/C or C/C genotype): 1.07 (0.55, 2.07)
Progression-free Survival HR (95% CI) multivariate (training cohort, adjusted for liver metastasis and adjuvant history, OCT2 rs316000 A/G or G/G genotype): 1.11 (0.48, 2.56)
Progression-free Survival HR (95% CI) multivariate (training cohort, adjusted for liver metastasis and adjuvant history, TK1 rs1065769 C/T or T/T genotype): 1.13 (0.58, 2.18)
OS (training cohort, grade 2< neutropenia (so in the source)): 8.3 months
HR for OS (training cohort, grade 2< vs grade 2> neutropenia): 0.41
OS (training cohort, grade 2> neutropenia (so in the source)): 4.4 months
OS [2]: 7.2
PFS [2]: 2.1 months
PFS (training cohort, hENT1 + OCT2/MATE1 classification: Good or Excellent): 3.5 months
OS (training cohort, hENT1 + OCT2/MATE1 classification: Good or Excellent (third value as printed)): 3.4
OS (training cohort, hENT1 + OCT2/MATE1 classification: Poor (first value)): 8.7
Disease Control Rate PD [3]: 10 (50%)
Disease Control Rate SD [3]: 10 (50%)
Overall Survival Median, months (95% CI) [4]: 7.2 (2.7, 14.8) months
Progression-free Survival Median, months (95% CI) [4]: 2.1 (1.6, 4.1) months
Overall Survival HR (95% CI) multivariate [5]: 0.37 (0.11, 1.23)
Overall Survival HR (95% CI) univariate [5]: 0.37 (0.12, 1.16)
Progression-free Survival HR (95% CI) multivariate [5]: 0.48 (0.20, 1.16)
Progression-free Survival HR (95% CI) univariate [5]: 0.42 (0.17, 1.03)
Disease Control Rate PD [6]: 2 (67%)
Disease Control Rate SD [6]: 1 (33%)
Overall Survival Median, months (95% CI) [7]: 8.7 (8.1, 15.6) months
Progression-free Survival Median, months (95% CI) [7]: 3.5 (2.5, 4.6) months
Overall Survival HR (95% CI) multivariate [8]: 0.08 (0.02, 0.41)
Overall Survival HR (95% CI) univariate [8]: 0.14 (0.04, 0.48)
Progression-free Survival HR (95% CI) multivariate [8]: 0.28 (0.11, 0.55)
Progression-free Survival HR (95% CI) univariate [8]: 0.26 (0.11, 0.59)
Disease Control Rate PD [9]: 9 (100%)
Disease Control Rate SD [9]: 0
Overall Survival Median, months (95% CI) [9]: 3.4 (2.7, 6.5) months
Progression-free Survival Median, months (95% CI) [9]: 1.6 (0.9, 2.9) months
PFS (training cohort, hENT1 rs760370 + OCT2 rs316019/MATE1 rs2289669 classification: Poor): 1.6 months
HR for OS [10]: 0.27
HR for PFS [10]: 0.44
Disease Control Rate PD [11]: 19 (83%)
Disease Control Rate SD [11]: 4 (17%)
OS [11]: 5.3 months
Overall Survival Median, months (95% CI) [11]: 5.3 (3.1, 12.4) months
PFS [11]: 2.1 months
Progression-free Survival Median, months (95% CI) [11]: 2.1 (1.6, 2.9) months
Disease Control Rate PD [12]: 11 (55%)
Disease Control Rate SD [12]: 9 (45%)
Overall Survival Median, months (95% CI) [13]: 8.7 (8.1, 15.6+) months
Progression-free Survival Median, months (95% CI) [13]: 3.5 (2.5, 4.6) months
Overall Survival HR (95% CI) multivariate [14]: 0.17 (0.05, 0.63)
Overall Survival HR (95% CI) univariate [14]: 0.27 (0.10, 0.70)
Progression-free Survival HR (95% CI) multivariate [14]: 0.44 (0.22, 0.89)
Progression-free Survival HR (95% CI) univariate [14]: 0.44 (0.23, 0.83)
Disease Control Rate PD [15]: 1 (33%)
Disease Control Rate SD [15]: 2 (67%)
OS [16]: 8.7 months
PFS [16]: 3.5 months
HR for OS [17]: 0.27
HR for PFS [17]: 0.44
HR for PFS (training cohort, hENT1 rs9394992, multivariate adjusted for liver metastases and adjuvant history): 0.44
Disease Control Rate PD [18]: 15 (83%)
Disease Control Rate SD [18]: 3 (17%)
OS [18]: 4.4 months
Overall Survival Median, months (95% CI) [18]: 4.4 (2.7, 7.2) months
PFS [18]: 1.9 months
Progression-free Survival Median, months (95% CI) [18]: 1.9 (1.6, 2.7) months
Disease Control Rate PD [19]: 14 (64%)
Disease Control Rate SD [19]: 8 (36%)
Overall Survival Median, months (95% CI) [20]: 8.7 (8.1, 15.6+) months
Progression-free Survival Median, months (95% CI) [20]: 3.4 (2.3, 4.4) months
Overall Survival HR (95% CI) multivariate [21]: 0.20 (0.08, 0.51)
Overall Survival HR (95% CI) univariate [21]: 0.21 (0.08, 0.51)
Progression-free Survival HR (95% CI) multivariate [21]: 0.44 (0.23, 0.86)
Progression-free Survival HR (95% CI) univariate [21]: 0.48 (0.25, 0.91)
Disease Control Rate PD [22]: 2 (33%)
Disease Control Rate SD [22]: 4 (67%)
OS [23]: 8.7 months
PFS [23]: 3.4 months
HR for OS [24]: 0.21
HR for PFS [24]: 0.48
HR for OS [25]: 0.59
HR for PFS [25]: 0.68
OS [26]: 6.3 months
PFS [26]: 2.1 months
OS [27]: 8.3 months
PFS [27]: 3.4 months
Median OS [28]: 8.0 months
Median PFS [28]: 2.6 months
